Columns and labels:
Experiment in all cases: intact protein mass spectrometry
Format in all cases: binding
BcGH76 [1] = biological target: T1, BcGH76 (Niallia circulans, UniProt Q9Z4P9); conditions: probe:protein 10:1, 25 mM HEPES pH 7, 100 mM NaCl, 293 K, 22 h
T1 construct: gene aman6; recombinant GH76 endo-mannanase; borders and tags not given; R341Q crystallisation variant also used
Excerpt: (§1) intact protein mass spectrometry on BcGH76

BcGH76 [2] = biological target: T2, BcGH76 (Niallia circulans, UniProt Q9Z4P9, R341Q); conditions: covalent, probe:protein 10:1, 25 mM HEPES pH 7, 100 mM NaCl, 293 K
T2 construct: gene aman6; recombinant GH76 endo-mannanase; borders and tags not given; R341Q crystallisation variant also used
T2 sequence (Q9Z4P9 entry or part of it R341Q): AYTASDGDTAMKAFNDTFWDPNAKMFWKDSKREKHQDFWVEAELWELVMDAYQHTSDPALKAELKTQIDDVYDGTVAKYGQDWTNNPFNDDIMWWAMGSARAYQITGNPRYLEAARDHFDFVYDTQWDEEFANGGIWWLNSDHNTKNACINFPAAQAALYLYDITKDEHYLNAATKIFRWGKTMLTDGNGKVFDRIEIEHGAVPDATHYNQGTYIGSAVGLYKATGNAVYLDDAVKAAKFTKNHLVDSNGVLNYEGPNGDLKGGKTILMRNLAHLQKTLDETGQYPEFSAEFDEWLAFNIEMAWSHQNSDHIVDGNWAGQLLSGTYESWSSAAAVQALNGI
Excerpt: as §1

BcGH76 [3] = biological target: T3, BcGH76 (Niallia circulans, UniProt Q9Z4P9, D125N/R341Q); conditions: covalent, probe:protein 10:1, 25 mM HEPES pH 7, 100 mM NaCl, 293 K
T3 construct: gene aman6; recombinant GH76 endo-mannanase; borders and tags not given; R341Q crystallisation variant also used
T3 sequence (Q9Z4P9 entry or part of it D125N/R341Q): as the sequence (Q9Z4P9 entry or part of it R341Q) above, with D91N counted along it
Excerpt: as §1

BcGH76 [4] = biological target: T4, BcGH76 (Niallia circulans, UniProt Q9Z4P9, D125N); conditions: probe:protein 10:1, 25 mM HEPES pH 7, 100 mM NaCl, 293 K
T4 construct: gene aman6; recombinant GH76 endo-mannanase; borders and tags not given; R341Q crystallisation variant also used
T4 sequence (Q9Z4P9 entry or part of it D125N): as the sequence (Q9Z4P9 entry or part of it R341Q) above, with D91N, Q307R counted along it
Excerpt: as §1

T1 sequence (Q9Z4P9 entry or part of it): as the sequence (Q9Z4P9 entry or part of it R341Q) above, with Q307R counted along it

covalent labelling (BcGH76 [1]) [%]	22 h incubation / 1 (BcGH76 [2]) [%]	16 h incubation / 2 (BcGH76 [2]; 22 h) [%]	22 h incubation / 2 (BcGH76 [3]) [%]	22 h incubation / 2 (BcGH76 [4]; covalent) [%]	percent covalent labelling (BcGH76 [1]) [%]	16 h incubation / 3 (BcGH76 [2]; 22 h) [%]	22 h incubation / 3 (BcGH76 [3]) [%]	covalent labelling of protein (%) (BcGH76 [4]; 22 h)	SMILES
30	30								OC[C@H]1O[C@H](OC[C@@H]2[C@@H](O)[C@H](O)[C@H](O)[C@H]3O[C@@H]23)[C@@H](O)[C@@H](O)[C@@H]1O [compound 1, α‐1,6‐α‐manno‐cyclophellitol disaccharide 1]
30		17	85	85					OC[C@H]1O[C@H](OC[C@H]2O[C@H](OC[C@@H]3[C@@H](O)[C@H](O)[C@H](O)[C@H]4O[C@@H]34)[C@@H](O)[C@@H](O)[C@@H]2O)[C@@H](O)[C@@H](O)[C@@H]1O [compound 2, trisaccharide 2]
					100	100	45	44	OC[C@H]1O[C@H](OC[C@H]2C[C@H](OC[C@@H]3[C@@H](O)[C@H](O)[C@H](O)[C@H]4O[C@@H]34)[C@@H](O)[C@@H](O)[C@@H]2O)[C@@H](O)[C@@H](O)[C@@H]1O [compound 3, carba‐trisaccharide cyclophellitol 3]

From publication PMC8362039, “Development of Non‐Hydrolysable Oligosaccharide Activity‐Based Inactivators for Endoglycanases: A Case Study on α‐1,6 Mannanases” (Chemistry (Weinheim an Der Bergstrasse, Germany), 2021)
